Measured values: PubChem BioAssay (NCI)
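Five compound concentrations were applied to cells in 96-well plates for 48 hours; endpoints were derived by simple linear interpolation of the resulting dose-response curve. Abbreviation: GI50, concentration required for 50% inhibition of growth. TGI: concentration producing complete growth inhibition.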

Legend:
Assay in all cases: inhibition of tumour cell growth, NCI panel, 48 h
[1] = system: CAKI-1 renal
[2] = system: COLO 205 colon
[3] = system: HT29 colon
[4] = system: IGROV1 ovarian
[5] = system: NCI-H460 lung
[6] = system: OVCAR-8 ovarian
[7] = system: SK-OV-3 ovarian
[8] = system: SNB-75 CNS
[9] = system: U251 CNS
[10] = system: HOP-92 NSCLC

In the case of `CCN(CCO)C(=O)C1(c2ccccc2)CCCCC1`, the TGI [1] is reported as over 10 µM, the TGI [2] is reported as over 10 µM and the TGI [3] is reported as over 10 µM. For the same compound, the TGI [4] was over 10 µM, the TGI [5] was over 10 µM and the TGI [6] was over 10 µM. It also gave a TGI [7] of over 10 µM, a TGI [8] of over 10 µM and a TGI [9] of over 10 µM.

In the case of `CCCCC(=O)c1ccc2ccccc2c1O`, the TGI [1] is reported as over 100 µM, the TGI [2] is reported as over 100 µM and the TGI [10] is reported as over 100 µM. It also gave a TGI [3] of over 100 µM, a TGI [4] of over 100 µM and a TGI [5] of over 100 µM. It also gave a TGI [6] of over 100 µM, a TGI [7] of over 100 µM and a TGI [8] of over 100 µM. The TGI [9] was over 100 µM.

Compound `CCOC(=O)NC(=O)c1cn(CCNCCO)c(=O)[nH]c1=O` has a TGI [1] of over 100 µM, a TGI [2] of over 100 µM and a TGI [10] of over 100 µM. The TGI [3] was over 100 µM, the TGI [4] was over 100 µM and the TGI [5] was over 100 µM. The TGI [6] was over 100 µM, the TGI [7] was over 100 µM and the TGI [8] was over 100 µM. The TGI [9] was over 100 µM.

`CN(CCC(=O)O)C1=Nc2ccc(Cl)cc2C(c2ccccc2)=[N+]([O-])C1` was tested, and the TGI [1] was over 100 µM, the TGI [2] was over 100 µM and the TGI [10] was over 100 µM. For the same compound, the TGI [3] was over 100 µM, the TGI [4] was over 100 µM and the TGI [5] was over 100 µM. For the same compound, the TGI [6] was over 100 µM, the TGI [7] was over 100 µM and the TGI [8] was over 100 µM. The TGI [9] was over 100 µM.

Work on `OCCCNc1nc(=S)[nH]c2[nH]ncc12` yielded a GI50 [1] of 43.3 µM, a TGI [1] of over 100 µM and a GI50 [2] of 29.3 µM. It also gave a TGI [2] of over 100 µM, a GI50 [10] of 65.6 µM and a TGI [10] of over 100 µM. It also gave a GI50 [3] of 54.8 µM, a TGI [3] of over 100 µM and a GI50 [4] of 29.9 µM. For the same compound, the TGI [4] was over 100 µM, the GI50 [5] was 30.5 µM and the TGI [5] was over 100 µM. It also gave a GI50 [6] of 37.8 µM, a TGI [6] of over 100 µM and a GI50 [7] of 48.7 µM. It also gave a TGI [7] of over 100 µM, a GI50 [8] of over 100 µM and a TGI [8] of over 100 µM. For the same compound, the GI50 [9] was 40.1 µM and the TGI [9] was over 100 µM.

`[Cl-].[Rh+3].c1cnc2c(c1)ccc1cccnc12.c1cnc2c(c1)ccc1cccnc12.c1cnc2c(c1)ccc1cccnc12` gave a TGI [10] of over 100 µM, a TGI [3] of over 100 µM and a TGI [4] of over 100 µM. The TGI [5] was over 100 µM, the TGI [6] was over 100 µM and the TGI [7] was over 100 µM. It also gave a TGI [8] of over 100 µM and a TGI [9] of over 100 µM.

Work on `c1nc(N2CC2)c2cnn(C3CCCCO3)c2n1` (centres undefined) yielded a TGI [1] of over 100 µM, a TGI [2] of over 100 µM and a TGI [10] of over 100 µM. For the same compound, the TGI [3] was over 100 µM, the TGI [4] was over 100 µM and the TGI [5] was over 100 µM. The TGI [6] was over 100 µM, the TGI [7] was over 100 µM and the TGI [8] was over 100 µM. It also gave a TGI [9] of over 100 µM.

`C[C@]12CC[C@H](OC(=O)Cc3ccc(N(CCCl)CCCl)cc3)CC1=CC[C@@H]1[C@@H]2CC[C@]2(C)C(=O)CC[C@@H]12` showed a TGI [1] of over 100 µM, a TGI [2] of over 100 µM and a TGI [10] of over 100 µM. The TGI [3] was over 100 µM, the TGI [4] was over 100 µM and the TGI [5] was over 100 µM. It also gave a TGI [6] of over 100 µM, a TGI [8] of over 100 µM and a TGI [9] of over 100 µM.

`O=S(=O)(O)C1=C2Sc3ccccc3N=C2c2ccccc2C1` gave a TGI [1] of 34.7 µM, a TGI [2] of 30.3 µM and a TGI [10] of 22 µM. For the same compound, the TGI [3] was 40 µM, the TGI [4] was 28.1 µM and the TGI [5] was 40 µM. The TGI [6] was 31.5 µM, the TGI [7] was 44.1 µM and the TGI [8] was 32.5 µM. For the same compound, the TGI [9] was 25.4 µM.

Compound `Ic1ccc2c(c1)N(c1ccccc1)c1cc(N=c3ccc4nc5ccc(I)cc5n(-c5ccccc5)c-4c3)ccc1N2` has a TGI [1] of over 100 µM, a TGI [2] of 71.5 µM and a TGI [10] of over 100 µM. The TGI [3] was 73.1 µM, the TGI [4] was over 100 µM and the TGI [5] was over 100 µM. It also gave a TGI [6] of over 100 µM, a TGI [7] of over 100 µM and a TGI [8] of over 100 µM. For the same compound, the TGI [9] was over 100 µM.

`C[N+](C)(C)CCCSc1nc2ccccc2[nH]1` was tested, and the TGI [1] was over 100 µM, the TGI [2] was over 100 µM and the TGI [10] was over 100 µM. The TGI [3] was over 100 µM, the TGI [4] was over 100 µM and the TGI [5] was over 100 µM. It also gave a TGI [6] of over 100 µM, a TGI [7] of over 100 µM and a TGI [9] of over 100 µM.

Compound `CN1CCN(c2ccc3[nH]c(-c4cc(O)c5c(nc(CO)n5C)c4O)nc3n2)CC1` has a TGI [1] of over 100 µM, a TGI [2] of 43.3 µM and a TGI [10] of over 100 µM. It also gave a TGI [3] of over 100 µM, a TGI [4] of over 100 µM and a TGI [5] of over 100 µM. It also gave a TGI [6] of over 100 µM, a TGI [7] of over 100 µM and a TGI [8] of over 100 µM. It also gave a TGI [9] of 44.2 µM.

With `CCCC/C=C/C/C=C/CCCCCCCCC(=O)OCC1CCCN2CCCCC12` (centres undefined) the TGI [1] was over 100 µM, the TGI [2] was over 100 µM and the TGI [10] was over 100 µM. It also gave a TGI [3] of over 100 µM, a TGI [5] of over 100 µM and a TGI [6] of over 100 µM. For the same compound, the TGI [7] was over 100 µM, the TGI [8] was over 100 µM and the TGI [9] was over 100 µM.
